Consider one molecule from ChEMBL document CHEMBL4507294, “Data for DCP probe MSD-CYP11B2” (2021).

As a reminder, the inhibition is the drop in the measured response relative to a control, in per cent. The IC50 is the midpoint of a concentration-inhibition curve. Low readings indicate inhibition by little substance, high ones a need for much substance. In general, Ki refers to the dissociation constant of the complex between target and ligand, obtained from inhibition or displacement. Low values mean a stronger hold on the target, high ones a looser hold on the target.

In experiment [1] the target is Melanocortin receptor 4 (Homo sapiens) (UniProt P32245). Description: Inhibition of Melanocortin MC4 at 10 µM in the Eurofins-Panlabs radioligand binding assay (Eurofins_assay_251350). Further details: ligand concentration 0.02 nM. The note with it: Compound concentration 10.0 uM.
Sequence of Melanocortin receptor 4 (Homo sapiens) (P32245 whole entry): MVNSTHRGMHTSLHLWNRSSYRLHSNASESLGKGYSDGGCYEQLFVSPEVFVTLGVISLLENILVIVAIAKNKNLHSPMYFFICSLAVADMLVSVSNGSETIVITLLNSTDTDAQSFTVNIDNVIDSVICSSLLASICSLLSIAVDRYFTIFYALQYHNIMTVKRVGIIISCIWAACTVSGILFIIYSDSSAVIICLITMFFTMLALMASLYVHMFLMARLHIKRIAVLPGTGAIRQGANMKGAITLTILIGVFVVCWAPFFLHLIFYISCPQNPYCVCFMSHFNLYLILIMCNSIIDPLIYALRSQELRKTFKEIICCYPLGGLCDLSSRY
Experiment [2] addresses T1, 5-hydroxytryptamine receptor 2B (Homo sapiens, UniProt P41595).
Experiment [3] concerns the target Beta-1 adrenergic receptor (Homo sapiens, UniProt P08588). Kind of experiment: Panlabs assay (ADRB1). Further details: compound concentration 10 uM.
The target of experiment [4] is Melanocyte-stimulating hormone receptor (Homo sapiens) (UniProt Q01726). Description: Melanocortin MC1 Eurofins-Panlabs radioligand binding assay. Particulars: Compound concentration 10.0 uM.
Sequence of Melanocyte-stimulating hormone receptor (Homo sapiens) (Q01726 whole entry, looked up): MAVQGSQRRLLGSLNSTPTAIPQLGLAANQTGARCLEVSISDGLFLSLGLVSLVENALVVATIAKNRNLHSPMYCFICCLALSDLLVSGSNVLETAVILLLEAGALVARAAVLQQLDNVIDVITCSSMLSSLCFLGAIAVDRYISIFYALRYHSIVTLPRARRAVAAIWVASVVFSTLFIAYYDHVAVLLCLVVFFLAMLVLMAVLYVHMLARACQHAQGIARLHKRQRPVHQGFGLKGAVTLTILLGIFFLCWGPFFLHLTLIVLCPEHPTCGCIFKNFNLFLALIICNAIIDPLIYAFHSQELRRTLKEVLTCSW
Experiment [5] has as its target T1, 5-hydroxytryptamine receptor 2B. Description: Inhibition of Serotonin (5-Hydroxytryptamine) 5-HT2B at compound concentration of 10.0 uM in the Eurofins-Panlabs radioligand binding assay (Eurofins_assay_271700). Also on record: ligand concentration 1.2 nM, non-specific ligand with concentration 10 uM Serotonin (5-HT), incubation time 60 min, incubation temperature 37 C.

The target of experiment [6] is T2, 5-hydroxytryptamine receptor 2C (Homo sapiens) (UniProt P28335).
T2 sequence (whole entry): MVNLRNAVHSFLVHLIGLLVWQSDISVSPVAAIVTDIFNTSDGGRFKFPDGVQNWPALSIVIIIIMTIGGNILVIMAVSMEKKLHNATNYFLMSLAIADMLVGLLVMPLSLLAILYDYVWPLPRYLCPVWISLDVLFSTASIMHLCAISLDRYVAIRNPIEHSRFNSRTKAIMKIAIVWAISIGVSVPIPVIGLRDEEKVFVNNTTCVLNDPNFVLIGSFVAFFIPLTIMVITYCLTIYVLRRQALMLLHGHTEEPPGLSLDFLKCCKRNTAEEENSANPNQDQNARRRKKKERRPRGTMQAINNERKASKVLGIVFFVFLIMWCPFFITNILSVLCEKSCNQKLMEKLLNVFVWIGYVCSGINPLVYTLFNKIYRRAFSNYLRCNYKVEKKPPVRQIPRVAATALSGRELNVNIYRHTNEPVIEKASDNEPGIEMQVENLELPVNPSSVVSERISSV
The note with it: Compound concentration 10.0 uM.

The target in experiment [7] is T1, 5-hydroxytryptamine receptor 2B. Description: Panlabs assay (HTR2B). Further details: compound concentration 10 uM.
Experiment [8] addresses D(1A) dopamine receptor (Homo sapiens) (UniProt P21728). Particulars: Compound concentration 10.0 uM.

T1 sequence (P41595 whole entry): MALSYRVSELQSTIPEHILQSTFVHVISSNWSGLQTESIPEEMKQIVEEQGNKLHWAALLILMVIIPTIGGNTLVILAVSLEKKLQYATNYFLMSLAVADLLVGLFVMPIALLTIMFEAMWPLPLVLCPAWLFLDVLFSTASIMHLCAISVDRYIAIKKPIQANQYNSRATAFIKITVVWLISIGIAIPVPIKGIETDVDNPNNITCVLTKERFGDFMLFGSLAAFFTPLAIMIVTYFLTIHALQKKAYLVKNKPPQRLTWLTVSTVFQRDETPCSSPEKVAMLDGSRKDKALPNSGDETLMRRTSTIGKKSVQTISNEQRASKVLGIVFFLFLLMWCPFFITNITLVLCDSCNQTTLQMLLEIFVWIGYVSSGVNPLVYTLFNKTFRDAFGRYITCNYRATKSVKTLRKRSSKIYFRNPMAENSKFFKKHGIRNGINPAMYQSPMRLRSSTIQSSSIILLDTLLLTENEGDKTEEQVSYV
Sequence of Beta-1 adrenergic receptor (P08588 whole entry): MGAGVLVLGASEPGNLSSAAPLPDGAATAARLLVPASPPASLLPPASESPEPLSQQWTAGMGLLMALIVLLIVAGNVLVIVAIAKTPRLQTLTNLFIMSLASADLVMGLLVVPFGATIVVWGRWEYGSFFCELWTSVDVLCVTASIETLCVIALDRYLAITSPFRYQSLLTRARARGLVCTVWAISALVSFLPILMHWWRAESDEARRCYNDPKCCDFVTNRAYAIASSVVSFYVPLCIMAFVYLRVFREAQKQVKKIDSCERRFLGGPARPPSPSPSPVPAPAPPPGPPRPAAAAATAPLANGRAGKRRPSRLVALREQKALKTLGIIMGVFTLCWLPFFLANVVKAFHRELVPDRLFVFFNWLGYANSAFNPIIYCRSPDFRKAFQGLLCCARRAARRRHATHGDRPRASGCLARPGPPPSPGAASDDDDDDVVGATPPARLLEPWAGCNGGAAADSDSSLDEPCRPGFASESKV
Sequence of D(1A) dopamine receptor (Homo sapiens) (P21728 whole entry): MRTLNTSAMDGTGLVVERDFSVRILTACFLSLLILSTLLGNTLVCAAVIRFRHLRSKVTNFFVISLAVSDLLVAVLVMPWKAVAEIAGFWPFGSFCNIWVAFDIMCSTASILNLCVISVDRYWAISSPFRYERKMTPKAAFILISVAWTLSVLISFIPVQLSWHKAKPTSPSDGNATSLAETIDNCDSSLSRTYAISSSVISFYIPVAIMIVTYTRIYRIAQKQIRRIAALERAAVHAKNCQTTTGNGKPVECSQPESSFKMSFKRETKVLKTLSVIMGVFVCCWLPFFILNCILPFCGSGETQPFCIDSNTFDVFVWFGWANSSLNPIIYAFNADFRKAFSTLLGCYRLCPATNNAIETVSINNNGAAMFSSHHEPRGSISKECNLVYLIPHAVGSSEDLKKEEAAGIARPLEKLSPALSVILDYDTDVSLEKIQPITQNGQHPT

As for `CC(C)(O)c1cncc(-c2nc3ccc(F)cc3n2C2CC2)c1` [MSD-CYP11B2], the inhibition in experiment [1] is -1%; in experiment [2] (Compound concentration 0.01 uM) it was -2%; in experiment [2] (Compound concentration 0.1 uM), -5%; in experiment [2] (Compound concentration 1.0 uM) it was 17%; in experiment [2] (Compound concentration 10.0 uM) it was 65%; in experiment [4], -1%. In addition, the figures for the inhibition in experiment [6] and in experiment [8] were 11% and -1%, respectively. For the same molecule, the IC50 in experiment [3] worked out at 9.62 µM; in experiment [5] it was 5.33 µM; in experiment [7] it was 5.33 µM. The affinity in experiment [5] corresponds to a Ki of 3.39 µM.
